Test results published in patent US20170058319A1, “NANOSENSOR FOR ASSESSING THROMBIN INHIBITORS” (VIRGINIA COMMONWEALTH UNIVERSITY, priority 2014, published 2017).
Entries after “also recorded” stand apart in the source; their conditions may differ.

How the values were obtained:
[1] = target: T1, Au-TH nanoprobe (Bos taurus, UniProt P00735); experiment: Quenching of [5F]-hirudin (54-65) SO3- fluorescence by Au-TH nanoprobe; type: binding, bovine; details: 30 nM HirP, 0.5 h at RT, 525 nm (λex=488 nm)
T1 construct: An aliquot of bovine α-thrombin (200 μg) from a stock solution; purchased Haematologic Technologies, Vermont, USA BCT-1020

[2] = tested on: AT levels; details: in vivo; cited from earlier work
[3] = in vivo; cited from earlier work
[4] = target: T2, NSET pair (Au-TH-NS and HirP) (Bos taurus, UniProt P00735); experiment: Probing antithrombin levels in plasma with NSET pair; type: binding, bovine; details: 600 μM BSA, 5-20 μL
T2 construct: An aliquot of bovine α-thrombin (200 μg) from a stock solution; purchased Haematologic Technologies, Vermont, USA BCT-1020
Method: A 96-well plate was used for this experiment. The baseline fluorescence of the NSET pair (Au-TH-NS (6 nM, 50 μL) and HirP (50 μL, 30 nM) in 50 μL of 20 mM Tris-HCl buffer, pH 7.4, containing 100 mM NaCl, 2.5 mM CaCl2 and 0.1% PEG8000) was measured by recording the fluorescence emission at 525 nm (λex=488 nm). The NSET pair was then incubated with different volumes of plasma (5 μL, 10 μL, 15 μL and 20 μL). To assess specificity of AT reaction, the NSET pair was also incubated with 600 μM BSA (5 μL, […], 15 μL and 20 μL). The fluorescence intensity was recorded within 1-3 min after incubation began (FIG. 6).

[5] = target: T3, PF-4 heparin complex (Homo sapiens, UniProt P02776); details: in vivo; cited from earlier work
T3 sequence (P02776 32-101): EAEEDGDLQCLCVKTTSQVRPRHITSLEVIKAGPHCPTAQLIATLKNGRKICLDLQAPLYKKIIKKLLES

[6] = cited from earlier work
[7] = Method: Stability of Au-TH nanoparticles was studied at RT and at −80° C. The NPs were kept in dark at RT for six hours and at −80° C. for 1 month. Absorbance spectra were measured every hour.
[8] = Catalytic activity of surface bound thrombin, Michaelis Menten kinetics; type: biochemical; details: PBS pH 7.4, 37° C., Spectrozyme TH 0.7-750 μM
Method: Michaelis Menten kinetics were utilized to test the catalytic activity of the surface bound thrombin on the AuNP-TH using a microplate chromogenic substrate hydrolysis assay. Briefly, 165 μL aliquots of PBS buffer pH 7.4 were placed in a 96-well microplate, to which either 5 μL of thrombin at a concentration of 0.04 mg/ml (1 μM) or 5 μL of AuNP-TH was added. The solution was incubated for 5 minutes at 37° C., followed by addition of 30 μL of serial dilutions of Spectrozyme TH substrate such that the final concentrations ranged from 0.7-750 μM. The velocity of substrate hydrolysis was measured by monitoring the slope of the increase in absorbance at 405 nm. A plot of velocity of substrate hydrolysis (v) vs substrate concentration ([S]) (FIG. 5) was fit to the Michaelis Menten equation below to yield the Michaelis Menten constant (KM) and maximum velocity of the reaction (VMAX), which are a direct measure of the catalytic efficiency of the enzyme.

[9] = target: T4, surface bound thrombin on the AuNP (Bos taurus, UniProt P00735); experiment: Reactivity of surface bound thrombin to antithrombin, chromogenic substrate hydrolysis assay; type: biochemical, bovine; details: AT alone
T4 construct: An aliquot of bovine α-thrombin (200 μg) from a stock solution; purchased Haematologic Technologies, Vermont, USA BCT-1020
Method: To test if the surface bound thrombin on the AuNP is reactive towards antithrombin, chromogenic substrate hydrolysis assay like the one mentioned above was performed in the presence of antithrombin and heparin. In a 96-well microplate, 80 μL of PBS buffer was mixed with 5 μL of either AuNP or water. Following this, 5 μL of AT (100 μM) and 5 μL of heparin (3.6 mM) was added and the mixtures were incubated at 25° C. for 20 minutes. Controls were kept with and without AT and heparin, respectively. After incubation, 5 μL of 5 mM Spectrozyme TH was added and the rate of substrate hydrolysis was monitored by observing the absorbance at 405 nm. The velocity of the substrate hydrolysis as obtained by the slope was compared to that of the controls in order to assess the reactivity of the thrombin towards AT (FIG. 6). An approximate 70% reactivity towards AT in the presence of heparin is observed for the AuNP-TH sample.

[10] = target: T5, Au-TH-HirP nanoprobe (NSET pair) (Bos taurus, UniProt P00735); experiment: Probing antithrombin levels in buffer with Au-TH-HirP nanoprobe (NSET pair); type: binding, bovine; details: for increase in fluorescence at 525 nm: 1 hr incubation
T5 construct: An aliquot of bovine α-thrombin (200 μg) from a stock solution; purchased Haematologic Technologies, Vermont, USA BCT-1020
Method: Au-TH-NP (6 nM, 50 μL) and HirP (50 μL, 30 nM) were mixed with 20 mM Tris-HCl buffer, pH 7.4, containing 100 mM NaCl, 2.5 mM CaCl2 and 0.1% PEG8000 and used as the standard nano-metal surface energy transfer (NSET) pair. Antithrombin (AT) was serially diluted starting from 100 μM to 1 pM by adding 20 mM Tris-HCl buffer, pH 7.4. Serially diluted AT solutions were then incubated with standard NSET pair in a 96-well plate for 0-1 h at RT with gentle rocking. A solution of 100 μL of Au-TH-HirP nanoprobe (NSET pair) mixed with 50 μL of buffer was used a control (F0). After 1 h of incubation, the 96-well plate was read at 525 nm (λex=488 nm) (F). A plot of F/F0 as Y-axis against AT concentration as X-axis is shown as FIG. 5. […] The fluorescence increases were smaller at 15, 30 and 45 min timepoints (FIG. 5).

## [5F]-hirudin (54-65) SO3^− [HirP]
[1]
  quenching of fluorescence from HirP: approximately 86%

## heparin
[2]
  incidence of acquired AT deficiency: ≤ 25%

## bivalirudin
[3]
  half-life: 25 min

## bovine serum albumin [BSA]
[4]
  change in emission intensity: significant decrease; also recorded: Corresponding increases were not observed

## unfractionated heparin [UFH]
[5]
  patients forming antibodies to PF-4 heparin: 30-40%

## CCCCCCOC(=O)NC(=N)c1ccc(NCc2nc3cc(C(=O)N(CCC(=O)OCC)c4ccccn4)ccc3n2C)cc1 [Dabigatran etexilate]
[6]; doses as high as 300 mg twice a day for 12 weeks
  liver function tests: no abnormal liver function tests
[6]; trial with and without aspirin
  patients who developed significant bleeding: approximately 11%

## Au-TH nanoparticles: gold nanoparticles covalently linked to bovine alpha-thrombin
[7]; RT, in dark, six hours
  stability, change in absorbance spectra: essentially no change
[7]; −80° C., 1 month
  stability, degradation on storage: did not exhibit any degradation
[8]; listed as Au-TH NP
  VMAX and KM / catalytic efficiency compared with free thrombin: identical to that of free thrombin
[8]; listed as AuNP-TH
  VMAX and KM / catalytic efficiency compared with free thrombin: remain almost the same as that of free thrombin

## antithrombin [AT]
[9]
  neutralization of surface bound thrombin by AT: up to 60%
[10]; 15, 30 and 45 min timepoints versus 1 hr
  fluorescence increases at earlier timepoints: smaller
[10]; AT 1 μM
  increase in fluorescence at 525 nm: approximately 40%
[10]; AT 10 μM
  increase in fluorescence at 525 nm: ~25
[10]; AT 100 μM
  increase in fluorescence at 525 nm: ~20%
[10]; AT concentrations less than 1 μM
  increase in fluorescence: Noticeable increases
